In paper PMC5148686 (European journal of medicinal chemistry, 2016):
“Also recorded” adds a separate entry of the source.

Assays:
[1] = target: human dopamine D2 receptor (Homo sapiens, UniProt P14416); test: PDSP radioligand binding assay at dopamine D2 receptor; details: primary assay at 10 μM; not progressed to secondary assay
dopamine D1 receptor = dopamine D1 receptor (Macaca mulatta, UniProt O77680); test: [35S]GTPγS binding stimulation in HEK293-rh D1 cells; type: cell-based, rhesus macaque; details: compared with dopamine as full agonist
dopamine D3 receptor [2] = target: T1, dopamine D3 receptor (Homo sapiens, UniProt P35462); test: [35S]GTPγS binding in CHO-hD3 cells; type: cell-based; details: compared with dopamine as full agonist
dopamine D3 receptor [3] = target: T1, dopamine D3 receptor; test: PDSP radioligand binding assay at dopamine D3 receptor; details: versus 22c

Chain of human dopamine D2 receptor (P14416 whole entry): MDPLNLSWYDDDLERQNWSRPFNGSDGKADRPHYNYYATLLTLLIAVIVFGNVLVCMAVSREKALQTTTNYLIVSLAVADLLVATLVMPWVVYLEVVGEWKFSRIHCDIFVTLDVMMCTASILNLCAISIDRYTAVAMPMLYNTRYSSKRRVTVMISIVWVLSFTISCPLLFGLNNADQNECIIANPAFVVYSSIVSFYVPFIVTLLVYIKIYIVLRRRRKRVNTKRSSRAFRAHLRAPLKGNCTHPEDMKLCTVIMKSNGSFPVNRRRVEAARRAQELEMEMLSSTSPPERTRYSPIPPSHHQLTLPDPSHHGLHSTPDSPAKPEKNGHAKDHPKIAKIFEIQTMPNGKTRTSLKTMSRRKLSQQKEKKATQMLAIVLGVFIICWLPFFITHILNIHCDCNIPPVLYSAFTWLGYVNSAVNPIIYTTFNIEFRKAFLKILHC
T1 sequence (P35462 whole entry): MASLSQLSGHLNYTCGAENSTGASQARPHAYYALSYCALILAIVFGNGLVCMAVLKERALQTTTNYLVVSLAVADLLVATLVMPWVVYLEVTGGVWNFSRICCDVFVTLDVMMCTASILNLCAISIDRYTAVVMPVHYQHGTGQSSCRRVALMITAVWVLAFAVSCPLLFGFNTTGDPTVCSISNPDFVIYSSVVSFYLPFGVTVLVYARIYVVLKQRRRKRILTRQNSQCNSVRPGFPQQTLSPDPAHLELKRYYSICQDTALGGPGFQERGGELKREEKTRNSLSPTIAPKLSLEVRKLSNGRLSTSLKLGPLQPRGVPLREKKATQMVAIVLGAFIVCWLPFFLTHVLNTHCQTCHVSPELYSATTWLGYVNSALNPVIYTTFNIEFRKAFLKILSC
Chain of dopamine D1 receptor (O77680 whole entry): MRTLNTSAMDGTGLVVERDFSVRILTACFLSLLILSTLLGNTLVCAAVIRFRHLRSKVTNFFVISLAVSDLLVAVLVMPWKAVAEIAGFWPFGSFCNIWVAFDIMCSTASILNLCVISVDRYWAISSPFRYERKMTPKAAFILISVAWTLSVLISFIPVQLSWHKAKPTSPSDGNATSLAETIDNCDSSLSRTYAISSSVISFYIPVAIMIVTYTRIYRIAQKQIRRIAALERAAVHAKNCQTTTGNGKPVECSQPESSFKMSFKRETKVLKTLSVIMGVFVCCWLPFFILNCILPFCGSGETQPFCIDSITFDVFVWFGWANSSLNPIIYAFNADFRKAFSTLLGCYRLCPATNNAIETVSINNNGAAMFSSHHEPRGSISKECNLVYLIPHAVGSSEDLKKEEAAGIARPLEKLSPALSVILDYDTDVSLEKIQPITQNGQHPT

Row | SMILES | D2 receptor affinity in the primary assay [1] | also measured
1 | CCOc1c(O)cc(Br)c2c1CN1CCc3cc(OC)c(O)cc3[C@@H]1C2 [Compound 20a, (S)-12-bromo-9-ethoxy-3-methoxy-5,8,13,13a-tetrahydro-6H-isoquinolino[3,2-a]isoquinoline-2,10-diol] | did not show any appreciable D2 receptor affinity | –
2 | COCCOc1c(O)cc(Br)c2c1CN1CCc3cc(OC)c(O)cc3[C@@H]1C2 [Compound 20g, (S)-12-bromo-3-methoxy-9-(2-methoxyethoxy)-5,8,13,13a-tetrahydro-6H-isoquinolino[3,2-a]isoquinoline-2,10-diol] | did not show any appreciable D2 receptor affinity; also recorded: no activity | –
3 | CCOc1c(O)ccc2c1CN1CCc3cc(OC)c(O)cc3[C@@H]1C2 [Compound 22a, (S)-9-ethoxy-3-methoxy-5,8,13,13a-tetrahydro-6H-isoquinolino[3,2-a]isoquinoline-2,10-diol] | lacked any appreciable affinity | intrinsic activity at D1 receptor (stimulation of GTPγ-S binding) (dopamine D1 receptor): lacked intrinsic activity; intrinsic activity at D3 receptor (stimulation of GTPγ-S binding) (dopamine D3 receptor [2]): lacked intrinsic activity
4 | CCCCOc1c(O)ccc2c1CN1CCc3cc(OC)c(O)cc3[C@@H]1C2 [Compound 22c, (S)-9-butoxy-3-methoxy-5,8,13,13a-tetrahydro-6H-isoquinolino[3,2-a]isoquinoline-2,10-diol] | lacked any appreciable affinity | –
5 | CCCCCCOc1c(O)ccc2c1CN1CCc3cc(OC)c(O)cc3[C@@H]1C2 [Compound 22e, (S)-9-(hexyloxy)-3-methoxy-5,8,13,13a-tetrahydro-6H-isoquinolino[3,2-a]isoquinoline-2,10-diol] | lacked any appreciable affinity | –
6 | COCCOc1c(O)ccc2c1CN1CCc3cc(OC)c(O)cc3[C@@H]1C2 [Compound 22g, (S)-3-methoxy-9-(2-methoxyethoxy)-5,8,13,13a-tetrahydro-6H-isoquinolino[3,2-a]isoquinoline-2,10-diol] | – | fold higher D3 affinity than n-butyloxy analogue 22c (dopamine D3 receptor [3]): 4 fold
